Experimental data taken from US12195482B1 (Arcus Biosciences, Inc., priority 2022, dated 2025).

What was measured:
[1] = target: T1, p-AXL (Homo sapiens, UniProt P30530); assay: Axl phosphorylation inhibition ELISA in HEK293T cells transfected with NanoLuc-tagged AXL; format: cell-based; details: 1 h compound incubation, media (OptiMEM)
T1 construct: expressed in transfected cells; host or cells: HEK293T
T1 sequence (P30530 26-894): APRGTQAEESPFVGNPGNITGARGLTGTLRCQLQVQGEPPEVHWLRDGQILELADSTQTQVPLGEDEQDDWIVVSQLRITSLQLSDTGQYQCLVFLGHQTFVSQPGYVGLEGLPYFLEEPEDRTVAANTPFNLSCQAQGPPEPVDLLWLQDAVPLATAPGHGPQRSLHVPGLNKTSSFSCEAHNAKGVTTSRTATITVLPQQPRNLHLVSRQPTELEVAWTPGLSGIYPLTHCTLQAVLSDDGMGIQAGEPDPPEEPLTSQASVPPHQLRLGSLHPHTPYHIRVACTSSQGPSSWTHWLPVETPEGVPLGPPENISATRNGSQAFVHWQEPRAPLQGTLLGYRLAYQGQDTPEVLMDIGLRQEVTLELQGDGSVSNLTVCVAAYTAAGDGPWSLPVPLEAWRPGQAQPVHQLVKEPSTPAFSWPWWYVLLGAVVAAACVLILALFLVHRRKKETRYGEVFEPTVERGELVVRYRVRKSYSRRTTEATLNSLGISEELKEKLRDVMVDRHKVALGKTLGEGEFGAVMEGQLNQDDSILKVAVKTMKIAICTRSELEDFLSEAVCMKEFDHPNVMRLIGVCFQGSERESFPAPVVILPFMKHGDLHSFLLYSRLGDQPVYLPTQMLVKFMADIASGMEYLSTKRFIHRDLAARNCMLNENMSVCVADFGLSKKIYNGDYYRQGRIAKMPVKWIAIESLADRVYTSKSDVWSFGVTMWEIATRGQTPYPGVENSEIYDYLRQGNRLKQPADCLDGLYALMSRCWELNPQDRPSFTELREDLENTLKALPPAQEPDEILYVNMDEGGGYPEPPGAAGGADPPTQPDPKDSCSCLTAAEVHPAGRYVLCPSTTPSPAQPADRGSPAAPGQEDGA
Summary of the method: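 Phospho-AXL detected by luminescence of NanoLuc tag after capture of cell lysate on biotinylated anti-phospho-tyrosine mAb plates (2 h). Lysates came from transiently transfected HEK293T cells treated 1 h at 37° C with serial 2-fold dilutions (22 points). IC50 by standard 4-parameter logistic fitting.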

[2] = target: T2, Axl (Homo sapiens, UniProt P30530); assay: Biochemical potency, HTRF KinEASE-TK kinase assay; design: purchased Invitrogen; details: 5 nM AXL, 700 μM ATP
T2 sequence (P30530 26-894): T1 sequence (P30530 26-894)
Summary of the method: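 HTRF 665/620 readout after a 2 h RT kinase reaction (final 700 μM ATP, 800 nM biotinylated TK substrate, 1% DMSO, HEPES pH 7.4 buffer) gave percent activity. Final enzyme was 5 nM for AXL, 1 nM for TYRO3 or MER, each preincubated 1 h with compound.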

IC50 [1] | IC50 [2] | SMILES
100 to 1000 nM | < 100 nM | Cc1ccnc(-c2ccc(-c3n[nH]c4ncc(-c5ccc6c(c5)CC[C@@H](N5C7COCC5C7)CC6)cc34)cc2)c1 [Example 117, 6-[(7S)-2-{3-[4-(4-Methylpyridin-2-yl)phenyl]-1H-pyrazolo[3,4-b]pyridin-5-yl}-6,7,8,9-tetrahydro-5H-benzo[7]annulen-7-yl]-3-oxa-6-azabicyclo[3.1.1]heptane]
< 100 nM | < 100 nM | Cc1ccnc(-c2ccc(-c3n[nH]c4ncc(-c5ccc6c(c5)CC[C@@H](N5C7COCC5C7)CC6)cc34)cc2)c1C [Example 118, 6-[(7S)-2-{3-[4-(3,4-Dimethylpyridin-2-yl)phenyl]-1H-pyrazolo[3,4-b]pyridin-5-yl}-6,7,8,9-tetrahydro-5H-benzo[7]annulen-7-yl]-3-oxa-6-azabicyclo[3.1.1]heptane]
< 100 nM | < 100 nM | Cc1cnc(-c2ccc(-c3n[nH]c4ncc(-c5ccc6c(c5)CC[C@@H](N5C7COCC5C7)CC6)cc34)cc2)c(C)c1 [Example 119, 6-[(7S)-2-{3-[4-(3,5-Dimethylpyridin-2-yl)phenyl]-1H-pyrazolo[3,4-b]pyridin-5-yl}-6,7,8,9-tetrahydro-5H-benzo[7]annulen-7-yl]-3-oxa-6-azabicyclo[3.1.1]heptane]
< 100 nM | < 100 nM | Cc1ccc(C)c(-c2ccc(-c3n[nH]c4ncc(-c5ccc6c(c5)CC[C@@H](N5C7COCC5C7)CC6)cc34)cc2)n1 [Example 120, 6-[(7S)-2-{3-[4-(3,6-Dimethylpyridin-2-yl)phenyl]-1H-pyrazolo[3,4-b]pyridin-5-yl}-6,7,8,9-tetrahydro-5H-benzo[7]annulen-7-yl]-3-oxa-6-azabicyclo[3.1.1]heptane]
< 100 nM | < 100 nM | O=C1OCCN1c1cccnc1-c1ccc(-c2n[nH]c3ncc(-c4ccc5c(c4)CC[C@@H](N4C6COCC4C6)CC5)cc23)cc1 [Example 121, 3-[2-(4-{5-[(7S)-7-{3-Oxa-6-azabicyclo[3.1.1]heptan-6-yl}-6,7,8,9-tetrahydro-5H-benzo[7]annulen-2-yl]-1H-pyrazolo[3,4-b]pyridin-3-yl}phenyl)pyridin-3-yl]-1,3-oxazolidin-2-one]
< 100 nM | < 100 nM | Cc1ncc(C)c(-c2ccc(-c3n[nH]c4ncc(-c5ccc6c(c5)CC[C@@H](N5C7COCC5C7)CC6)cc34)cc2)n1 [Example 122, 6-[(7S)-2-{3-[4-(2,5-Dimethylpyrimidin-4-yl)phenyl]-1H-pyrazolo[3,4-b]pyridin-5-yl}-6,7,8,9-tetrahydro-5H-benzo[7]annulen-7-yl]-3-oxa-6-azabicyclo[3.1.1]heptane]
< 100 nM | < 100 nM | Cc1ncc(C)c(-c2ccc(-c3c[nH]c4ncc(-c5ccc6c(c5)CC[C@@H](N5C7COCC5C7)CC6)cc34)cc2)n1 [Example 123, 6-[(7S)-2-{3-[4-(2,5-Dimethylpyrimidin-4-yl)phenyl]-1H-pyrrolo[2,3-b]pyridin-5-yl}-6,7,8,9-tetrahydro-5H-benzo[7]annulen-7-yl]-3-oxa-6-azabicyclo[3.1.1]heptane]
< 100 nM | < 100 nM | C[C@@H]1COC(=O)N1c1cccnc1-c1ccc(-c2n[nH]c3ncc(-c4ccc5c(c4)CC[C@@H](N4C6COCC4C6)CC5)cc23)cc1 [Example 124, (4R)-4-Methyl-3-[2-(4-{5-[(7S)-7-{3-oxa-6-azabicyclo[3.1.1]heptan-6-yl}-6,7,8,9-tetrahydro-5H-benzo[7]annulen-2-yl]-1H-pyrazolo[3,4-b]pyridin-3-yl}phenyl)pyridin-3-yl]-1,3-oxazolidin-2-one]
< 100 nM | < 100 nM | C[C@H]1COC(=O)N1c1cccnc1-c1ccc(-c2n[nH]c3ncc(-c4ccc5c(c4)CC[C@@H](N4C6COCC4C6)CC5)cc23)cc1 [Example 125, (4S)-4-Methyl-3-[2-(4-{5-[(7S)-7-{3-oxa-6-azabicyclo[3.1.1]heptan-6-yl}-6,7,8,9-tetrahydro-5H-benzo[7]annulen-2-yl]-1H-pyrazolo[3,4-b]pyridin-3-yl}phenyl)pyridin-3-yl]-1,3-oxazolidin-2-one]
< 100 nM | < 100 nM | O=C1CCCCN1c1cccnc1-c1ccc(-c2n[nH]c3ncc(-c4ccc5c(c4)CC[C@@H](N4C6COCC4C6)CC5)cc23)cc1 [Example 127, 1-[2-(4-{5-[(7S)-7-{3-Oxa-6-azabicyclo[3.1.1]heptan-6-yl}-6,7,8,9-tetrahydro-5H-benzo[7]annulen-2-yl]-1H-pyrazolo[3,4-b]pyridin-3-yl}phenyl)pyridin-3-yl]piperidin-2-one]
< 100 nM | < 100 nM | CN(C(=O)C1CC1)c1cccnc1-c1ccc(-c2n[nH]c3ncc(-c4ccc5c(c4)CC[C@@H](N4C6COCC4C6)CC5)cc23)cc1 [Example 128, N-Methyl-N-[2-(4-{5-[(7S)-7-{3-oxa-6-azabicyclo[3.1.1]heptan-6-yl}-6,7,8,9-tetrahydro-5H-benzo[7]annulen-2-yl]-1H-pyrazolo[3,4-b]pyridin-3-yl}phenyl)pyridin-3-yl]cyclopropanecarboxamide]
< 100 nM | < 100 nM | Cc1cccnc1-c1ccc(-c2n[nH]c3ncc(-c4ccc5c(c4)CC[C@@H](N[C@H]4CCCOC4)CC5)cc23)cc1 [Example 129, (3S)—N-[(7S)-2-{3-[4-(3-Methylpyridin-2-yl)phenyl]-1H-pyrazolo[3,4-b]pyridin-5-yl}-6,7,8,9-tetrahydro-5H-benzo[7]annulen-7-yl]oxan-3-amine]
< 100 nM | < 100 nM | Cc1cccnc1-c1ccc(-c2n[nH]c3ncc(-c4ccc5c(c4)CC[C@@H](N4C[C@@H]6C[C@H]4CO6)CC5)cc23)cc1 [Example 130, (1S,4S)-5-[(7S)-2-{3-[4-(3-Methylpyridin-2-yl)phenyl]-1H-pyrazolo[3,4-b]pyridin-5-yl}-6,7,8,9-tetrahydro-5H-benzo[7]annulen-7-yl]-2-oxa-5-azabicyclo[2.2.1]heptane]
100 to 1000 nM | < 100 nM | CO[C@H]1C[C@@H](N[C@H]2CCc3ccc(-c4cnc5[nH]nc(-c6ccc(-c7ncccc7C)cc6)c5c4)cc3CC2)C1 [Example 131, (7S)-2-{3-[4-(3-Methylpyridin-2-yl)phenyl]-1H-pyrazolo[3,4-b]pyridin-5-yl}-N-[cis-3-methoxycyclobutyl]-6,7,8,9-tetrahydro-5H-benzo[7]annulen-7-amine]
< 100 nM | < 100 nM | COC[C@H]1CCN([C@H]2CCc3ccc(-c4cnc5[nH]nc(-c6ccc(-c7ncccc7C)cc6)c5c4)cc3CC2)C1 [Example 132, 2-(4-{5-[(7S)-7-[(3S)-3-(Methoxymethyl)pyrrolidin-1-yl]-6,7,8,9-tetrahydro-5H-benzo[7]annulen-2-yl]-1H-pyrazolo[3,4-b]pyridin-3-yl}phenyl)-3-methylpyridine]
< 100 nM | < 100 nM | c1ccc(-c2ccc(-c3n[nH]c4ncc(-c5ccc6c(c5)CC[C@@H](N5C7COCC5C7)CC6)cc34)cc2)nc1 [Example 154, 6-[(7S)-2-{3-[4-(Pyridin-2-yl)phenyl]-2H-pyrazolo[3,4-b]pyridin-5-yl}-6,7,8,9-tetrahydro-5H-benzo[7]annulen-7-yl]-3-oxa-6-azabicyclo[3.1.1]heptane]
100 to 1000 nM | < 100 nM | c1ccc(-c2ccc(-c3c[nH]c4ncc(-c5ccc6c(c5)CC[C@@H](N5C7COCC5C7)CC6)cc34)cc2)nc1 [Example 155, 6-[(7S)-2-{3-[4-(Pyridin-2-yl)phenyl]-1H-pyrrolo[2,3-b]pyridin-5-yl}-6,7,8,9-tetrahydro-5H-benzo[7]annulen-7-yl]-3-oxa-6-azabicyclo[3.1.1]heptane]
100 to 1000 nM | < 100 nM | C[C@@H]1CCCN1[C@@]1(C)CCc2ccc(-c3cnc4[nH]cc(-c5ccc(-c6ccccn6)cc5)c4c3)cc2CC1 [Example 156, 2-(4-{5-[(7S)-7-Methyl-7-[(2R)-2-methylpyrrolidin-1-yl]-6,7,8,9-tetrahydro-5H-benzo[7]annulen-2-yl]-1H-pyrrolo[2,3-b]pyridin-3-yl}phenyl)pyridine]
100 to 1000 nM | < 100 nM | c1cncc(-c2ccc(-c3c[nH]c4ncc(-c5ccc6c(c5)CC[C@@H](N5C7COCC5C7)CC6)cc34)cc2)c1 [Example 158, 6-[(7S)-2-{3-[4-(Pyridin-3-yl)phenyl]-1H-pyrrolo[2,3-b]pyridin-5-yl}-6,7,8,9-tetrahydro-5H-benzo[7]annulen-7-yl]-3-oxa-6-azabicyclo[3.1.1]heptane]
